Source: patent US20240043557A1, “A PLATFORM TO OBTAIN MONOCLONAL ANTIBODIES DIRECTED AGAINST PROCESSED TUMOR-SPECIFIC ANTIGENS” (Mediterranea Theranostic srl, priority 2020, published 2024)

T1: ADAM10 (Mus musculus, UniProt O35598)
T1 construct: endogenous in cells; host or cells: MTE 4-14 (transformed murine thymus cells) transfected with Trop-2
T1 sequence (O35598 215-749): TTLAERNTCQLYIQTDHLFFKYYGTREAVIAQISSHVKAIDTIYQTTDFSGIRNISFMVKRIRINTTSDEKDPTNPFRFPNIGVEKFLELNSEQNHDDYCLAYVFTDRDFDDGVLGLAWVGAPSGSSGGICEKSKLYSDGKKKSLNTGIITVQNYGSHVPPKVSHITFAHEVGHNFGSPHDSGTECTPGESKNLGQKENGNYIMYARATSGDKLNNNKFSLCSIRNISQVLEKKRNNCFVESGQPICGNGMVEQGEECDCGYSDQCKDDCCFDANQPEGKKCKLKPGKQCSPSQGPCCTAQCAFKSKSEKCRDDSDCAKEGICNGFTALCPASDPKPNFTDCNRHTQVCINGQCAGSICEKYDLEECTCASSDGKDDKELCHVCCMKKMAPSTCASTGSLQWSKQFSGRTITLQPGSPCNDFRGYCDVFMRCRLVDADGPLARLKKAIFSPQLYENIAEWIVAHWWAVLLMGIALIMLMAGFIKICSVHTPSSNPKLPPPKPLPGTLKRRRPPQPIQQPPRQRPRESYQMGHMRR

T2: Trop-2 (wild-type human Trop-2, NCBI accession number NP_002344.2)
T2 chain: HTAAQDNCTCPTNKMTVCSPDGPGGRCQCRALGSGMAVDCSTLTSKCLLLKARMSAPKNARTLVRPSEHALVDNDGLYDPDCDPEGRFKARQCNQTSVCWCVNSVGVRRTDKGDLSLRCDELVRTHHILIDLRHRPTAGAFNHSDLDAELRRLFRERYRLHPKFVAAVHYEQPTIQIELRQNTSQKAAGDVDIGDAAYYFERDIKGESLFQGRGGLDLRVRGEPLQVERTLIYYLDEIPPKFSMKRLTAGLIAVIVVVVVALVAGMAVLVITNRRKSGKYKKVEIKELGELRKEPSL


How the values were obtained:
[1] = system: metastatic triple-negative breast cancer (TNBC); conditions: patients with metastatic TNBC; cited from earlier work
ADAM10 = molecular target: T1, ADAM10; assay: Western blot of Trop-2 processing in MTE 4-14/Trop-2 transfectants upon ADAM10 inhibition; type: cell-based, murine; conditions: for effect on Trop-2 processing: MTE 4-14/Trop-2 transfectants, WB; for minimum concentration found to be effective in inhibiting Trop-2 cleavage: concentration used, GM6001 24 hours, G1254023X two doses every 24 hours for 48 hours; for concentration found effective (up to): inhibition of Trop-2 cleavage
Method: ADAM 10 activity was inhibited in the MTE 4-14/Trop-2 transfectants by treatment with chemical inhibitors or mRNA silencing, and the effect on Trop-2 processing and on Trop-2-dependent cell growth was evaluated.
A. WB analysis following treatment with the broad-spectrum metalloprotease inhibitor GM6001 or with the specific ADAM10 inhibitor G1254023X or ADAM10 siRNA silencing, as indicated. […] T2-p: processed Trop-2; na: native form; pr: processed form.
Western blotting was performed as described (El Sewedy, Fomaro et al. 1998). Tumors from experimental animals were rapidly frozen upon surgical removal and stored at −80° C. Frozen samples were quickly thawed and homogenized with a Dounce homogenizer. Cleared homogenates of tumors and cultured cell lysates were analyzed by SDS-PAGE and transferred to nitrocellulose filters. Filters were hybridized with anti-human Trop-2 (affinity-purified polyclonal rabbit antiserum) or anti-ADAM10 antibodies.
Cells were treated with ADAM10 inhibitors for 24 hours at the minimum concentration found to be effective in inhibiting Trop-2 cleavage, then assayed as indicated. The GM6001 metalloprotease family inhibitor (Calbiochem) was dissolved in DMSO and used at 6.5-13 μM for 24 hours; up to 50 μM GM6001 were found effective. The G1254023X selective ADAM10 inhibitor, dissolved in DMSO, was kindly provided by Dr. A. Ludwig. Cells received two doses (10 μM) every 24 hours for 48 hours; up to 20 μM G1254023X were found effective. Control cells received vehicle alone.
(§1) Complementary strategies were utilized for siRNA design. Briefly, Tuschl′ criteria were applied, i.e. position in the mRNA, GC content, base composition and flanking sequences (Elbashir, Harborth et al. 2001). Invitrogen (maidesigner.invitrogen.com/maiexpress/) provides a proprietary algorithm that performs a statistical analysis of the target sequence, based on sequence composition, nucleotide content and thermodynamic properties, and compares candidates with validated siRNA sequences. The Whitehead Institute web site (jura.wi.mit.edu/bioc/siRNAext/) combines Tuschl′ criteria with predictions of binding energies for both sense and antisense siRNAs and with BLAST filtering of cross-hybridizing sequences. The Sonnhammer procedure (sonnhammer.cgb.ki.se/siSearch/) performs data mining (siSearch) on validated siRNA databanks, using motif rules and energy parameters. siRNA were synthesized that were identified by more than one method or considered optimal by any of the procedures above. Annealed oligos were subcloned into the pSUPER vector, kindly provided by Dr. R. Bernard (Brummelkamp, Bernards et al. 2002), under the control of the RNA polymerase III H1 gene promoter. siRNA expression constructs were transiently transfected MTE 4-14 transfectants, and cell growth was measured. siRNA-targeted transcript levels were quantified by real-time PCR. Negative control siRNAs directed towards irrelevant targets were used; these were chosen after extensive testing for lack of off-target influence on cell growth.

MTE 4-14 cells = assay: In vitro growth of MTE 4-14 transfectants upon siRNA-mediated inhibition; type: cell-based, murine
Method: C. In vitro growth curves of MTE 4-14 cells transfected with the empty vector, wtTrop-2 or R87A-T88A Trop-2 upon ADAM10 (upper graphs, black,), MMP9 (lower graphs, black,) or control (human CD133, gray), siRNA-mediated inhibition. Bars: SEM. The p value for the only significant difference (ANOVA analysis) is indicated. Stars indicate post-hoc Bonferroni's t test p values (*≤0.05, **≤0.001).
Cell transfectants were seeded at 1.5−3.0×10^3 cells/well in 96-well plates (five replica wells per data point). Cell numbers were quantified by staining with crystal violet. Cell numbers were normalized against a standard reference curve of two-fold serially diluted cell samples.
as §1, with “Negative control siRNAs directed towards irrelevant targets were used; these were chosen after extensive testing for lack of off-target influence on cell growth.” left out

[2] = molecular target: T2, Trop-2 (wild-type human Trop-2, NCBI …)

Molecule | effect on Trop-2 processing (ADAM10) | minimum concentration found to be effective in inhibiting Trop-2 cleavage (ADAM10) [µM] | concentration found effective (up to) (ADAM10) | other results
Sacituzumab govitecan-hziy |  |  |  | efficacy in patients [1]: effective
CNC(=O)[C@@H](NC(=O)[C@H](CCCc1ccccc1)[C@H](C)N(O)C=O)C(C)(C)C [G1254023X] | reduction in Trop-2 processing | 10 | up to 20 μM | 
CNC(=O)[C@H](Cc1c[nH]c2ccccc12)NC(=O)[C@@H](CC(=O)NO)CC(C)C [GM6001] | reduction in Trop-2 processing | 6.5 to 13 | up to 50 μM | 
siRNAs targeting MMP9: control siRNA targeting murine MMP9 (NM_013599, nt 1780-1798), SEQ ID NO: 59/60 (nucleic acid, listed as Mus musculus) chain 1: GATCCCCCCGCAGACCAAGAGGGTTTTTCAAGAGAAAACCCTCTTGGTCTGCGGTTTTTGGAAA chain 2: AGCTTTTCCAAAAACCGCAGACCAAGAGGGTTTTCTCTTGAAAAACCCTCTTGGTCTGCGGGGG |  |  |  | effect on cell proliferation (MTE 4-14 cells; MTE 4-14 transfectants, siRNA targeting MMP9): no effect on cell proliferation
ADAM10 siRNA: siRNA targeting murine ADAM10 (NM_007399.3, nt 292-309), SEQ ID NO: 57/58, expressed from pSUPER (nucleic acid, listed as Mus musculus) chain 1: GATCCCCAGACATTATGAAGGATTATTTCAAGAGAATAATCCTTCATAATGTCTTTTTTGGAAA chain 2: AGCTTTTCCAAAAAAGACATTATGAAGGATTATTCTCTTGAAATAATCCTTCATAATGTCTGGG | inhibited Trop-2 processing |  |  | effect on in vitro growth of R87A-T88A or empty vector transfectants (MTE 4-14 cells; MTE 4-14 R87A-T88A or empty vector transfectants): no effect; effect on in vitro growth of wtTrop-2 transfectants (MTE 4-14 cells; MTE 4-14 wtTrop-2 transfectants): overrides Trop-2 dependent growth stimulus
murine ADAM10 (endogenous in MTE 4-14 cells) (protein) TTLAERNTCQLYIQTDHLFFKYYGTREAVIAQISSHVKAIDTIYQTTDFSGIRNISFMVKRIRINTTSDEKDPTNPFRFPNIGVEKFLELNSEQNHDDYCLAYVFTDRDFDDGVLGLAWVGAPSGSSGGICEKSKLYSDGKKKSLNTGIITVQNYGSHVPPKVSHITFAHEVGHNFGSPHDSGTECTPGESKNLGQKENGNYIMYARATSGDKLNNNKFSLCSIRNISQVLEKKRNNCFVESGQPICGNGMVEQGEECDCGYSDQCKDDCCFDANQPEGKKCKLKPGKQCSPSQGPCCTAQCAFKSKSEKCRDDSDCAKEGICNGFTALCPASDPKPNFTDCNRHTQVCINGQCAGSICEKYDLEECTCASSDGKDDKELCHVCCMKKMAPSTCASTGSLQWSKQFSGRTITLQPGSPCNDFRGYCDVFMRCRLVDADGPLARLKKAIFSPQLYENIAEWIVAHWWAVLLMGIALIMLMAGFIKICSVHTPSSNPKLPPPKPLPGTLKRRRPPQPIQQPPRQRPRESYQMGHMRR |  |  |  | Trop-2 processing (Western blot) after ADAM10 gene expression silencing by specific siRNAs [2]: Trop-2 processing was virtually abolished following ADAM10 silencing
